The record followed here is US12005045B2, “Method of modulating TIGIT and PD-1 signalling pathways using 1,2,4-oxadiazole compounds” (AURIGENE ONCOLOGY LIMITED, priority 2018, dated 2024).

The target of one experiment is T1, PD-L1 (Mus musculus, UniProt Q9EP73).
T1 construct: Fc (Fc chimera); purchased R&D Systems 1019-B7-100
The experiment is described as follows: Rescue of mouse splenocyte proliferation in the presence of recombinant PD-L1 (CFSE proliferation assay). The format is cell-based. To be noted: 100 nM compound; anti-CD3/CD28 stimulated mouse splenocytes + PD-L1; stimulated splenocytes = 100%; read-out: Percent rescue of splenocyte proliferation at 100 nM PD-L1 based assay. As for the experimental part:
Recombinant mouse PD-L1 (rm-PDL-1, cat no: 1019-B7-100; R&D Systems) were used as the source of PD-L1.
Mouse splenocytes harvested from 6-8 weeks old C57 BL6 mice; RPMI 1640 (GIBCO, Cat #11875); DMEM with high glucose (GIBCO, Cat #D6429); Fetal Bovine Serum [Hyclone, Cat #SH30071.03]; Penicillin (10000 unit/mL)-Streptomycin (10,000 μg/mL) Liquid (GIBCO, Cat #15140-122); MEM Sodium Pyruvate solution 100 mM (100×), Liquid (GIBCO, Cat #11360); Nonessential amino acid (GIBCO, Cat #11140); L-Glutamine (GIBCO, Cat #25030); Anti-CD3 antibody (eBiosciences—16-0032); Anti-CD28 antibody (eBiosciences—16-0281); ACK lysis buffer (1 mL) (GIBCO, Cat #-A10492); Histopaque (density-1.083 gm/mL) (SIGMA 10831); Trypan blue solution (SIGMA-T8154); 2 mL Norm Ject Luer Lock syringe-(Sigma 2014-12); 40 μm nylon cell strainer (BD FALCON 35230); Hemacytometer (Bright line-SIGMA Z359629); FACS Buffer (PBS/0.1% BSA): Phosphate Buffered Saline (PBS) pH 7.2 (HiMedia TS1006) with 0.1% Bovine Serum Albumin (BSA) (SIGMA A7050) and sodium azide (SIGMA 08591); 5 mM stock solution of CFSE: CFSE stock solution was prepared by diluting lyophilized CFSE with 180 μL of Dimethyl sulfoxide (DMSO C2H6SO, SIGMA-D-5879) and aliquoted in to tubes for further use. Working concentrations were titrated from 10 μM to 1 μM. (eBioscience-650850-85); 0.05% Trypsin and 0.02% EDTA (SIGMA 59417C); 96-well format ELISA plates (Corning CLS3390); BD FACS caliber (E6016); Recombinant mouse B7-H1/PDL1 Fc Chimera, (rm-PD-L1 cat no: 1019-B7-100).
Splenocytes harvested in a 50 mL falcon tube by mashing mouse spleen in a 40 μm cell strainer were further treated with 1 mL ACK lysis buffer for 5 min at room temperature. After washing with 9 mL of RPMI complete media, cells were re-suspended in 3 mL of 1×PBS in a 15 mL tube. 3 mL of Histopaque was added carefully to the bottom of the tube without disturbing overlaying splenocyte suspension. After centrifuging at 800×g for 20 min at room temperature, the opaque layer of splenocytes was collected carefully without disturbing/mixing the layers. Splenocytes were washed twice with cold 1×PBS followed by total cell counting using Trypan Blue exclusion method and used further for cell based assays.
Splenocytes were cultured in RPMI complete media (RPMI+10% fetal bovine serum+1 mM sodium pyruvate+10,000 units/mL penicillin and 10,000 μg/mL streptomycin) and maintained in a CO2 incubator with 5% CO2 at 37° C.
CFSE is a dye that passively diffuses into cells and binds to intracellular proteins. 1×10^6 cells/mL of harvested splenocytes were treated with 5 μM of CFSE in pre-warmed 1×PBS/0.1% BSA solution for 10 min at 37° C. Excess CFSE was quenched using 5 volumes of ice-cold culture media to the cells and incubated on ice for 5 min. CFSE labelled splenocytes were further given three washes with ice cold complete RPMI media. CFSE labelled 1×10^5 splenocytes added to wells containing either MDA-MB231 cells (1×10^5 cells cultured in high glucose DMEM medium) or recombinant human PDL-1 (100 ng/mL) and test compounds. Splenocytes were stimulated with anti-mouse CD3 and anti-mouse CD28 antibody (1 μg/mL each), and the culture was further incubated for 72 h at 37° C. with 5% CO2. Cells were harvested and washed thrice with ice cold FACS buffer and % proliferation was analysed by flow cytometry with 488 nm excitation and 521 nm emission filters.
Percent splenocyte proliferation was analysed using cell quest FACS program and percent rescue of splenocyte proliferation by compound was estimated after deduction of % background proliferation value and normalising to % stimulated splenocyte proliferation (positive control) as 100%. • Stimulated splenocytes: Splenocytes+anti-CD3/CD28 stimulation • Background proliferation: Splenocytes+anti-CD3/CD28+PD-L1 • Compound proliferation: Splenocytes+anti-CD3/CD28+PD-L1+Compound • Compound effect is examined by adding required conc. of compound to anti-CD3/CD28 stimulated splenocytes in presence of ligand (PDL-1).

In the next experiment the test system is mPVR. The experiment can be described thus: Rescue of mouse CD8+ T-cell proliferation in the presence of recombinant mPVR (IL-2 ELISA readout). The format is cell-based. The settings on record: mouse CD8+ T cells, anti-CD3 + mouse PVR, anti-TIGIT antibody = 100%; for Percent rescue of CD8+ T-cell proliferation at 100 nM mPVR based assay: 100 nM compound; for Percent rescue of CD8+ T-cell proliferation mPVR based assay: 1000 nM compound. The source says:
96-well plates, Corning; RPMI, Cat No. R6504, Sigma; Easy Sep magnet, Cat No. 18000, Stem Cell; Easy Sep Mouse CD8 T Cell isolation kit, Cat No. 19853, Stem Cell; Corning® cell strainer, (70 μm) Cat No. 431751, Corning; Purified anti-mouse CD3 Abs, Cat No. 100201, Biolegend; Recombinant mouse PVR, Cat No. 6909-CD-050, R&D Systems; Recombinant mouse anti-TIGIT Ab, Cat No. 142101, Biolegend; FBS, Cat No. SH30070.03, Hyclone; Mouse IL-2 ELISA Kit, R&D System Cat no DY402; Mouse IFN-γ ELISA Kit R&D Systems Cat no. DY485; Sterile PBS; FicollHistopaque, Cat No. 10831-6X100ML, Sigma
Spleen was collected from C57BL/6 male mice with 6-8 weeks of age. Splenocytes were isolated by slowly crushing the spleen between the sterile glass slides in RPMI+10% FBS and passing it through the 70 μm strainer. Cell suspension was centrifuged at 912×g for 10 minutes at room temperature and discarded the supernatant. Splenocytes were resuspended in RPMI+10% FBS (Complete RPMI). Resuspended splenocytes were overlaid on Ficoll Histopaque-1083 in a 50 ml Tarson tubes. Overlaid cells were centrifuged at 584×g for 30 minutes at room temperature without break. A clear buffy coat was carefully aspirated into sterile PBS. Isolated cells were washed using PBS and resuspended in complete RPMI medium to get a suspension of about 5×10^7 cells/ml. Mouse CD8^+ T cell were isolated by using EasySep Mouse CD8+ T Cell Isolation kit, as per manufacturers instruction.
96-well cell culture plate was coated with Purified anti-mouse CD3, 1 μg/mL (50 μL/well) and Recombinant Mouse PVR Fe Chimera, 0.5 μg/mL (50 ul/well) for 4 hours at 37° C. After 4 hours, the coated plate was washed with sterile PBS. Mouse CD8+ T cells isolated from spleen were added at 0.2 million/well ([…]) concentration into a 96-well cell culture plate. Test compound at various concentrations prepared in water or DMSO was added in respective wells (20 μL/well) so as to make the total volume 200 μL/well. The plates were incubated in 37° C. CO2 incubator for 3 days. On the 3rd day, cell supernatant was collected to determine cytokine levels (IL-2 or IFN-7) using ELISA. The extent of CD8+ T cell proliferation in presence or absence of test compound was measured by analysing the amount of IL-2 or IFN-7 in the culture supernatants using mouse IL-2 or IFN-7 ELISA kits as per manufacture instructions. Recombinant mouse anti-TIGIT antibody was used as positive control to determine the increased proliferation of CD8+ T cells.
Percent CD8+ T cell proliferation was analysed by measuring IL-2 levels using IL-2 ELISA kit and percent rescue of CD8+ T cell by test compound was estimated after deduction of % background proliferation value and normalising to % stimulated CD8+ T cell proliferation by anti-TIGIT antibody (positive control) as 100%.
On the technique in general: An ELISA detects its analyte on a solid surface through an enzyme-linked reagent.

Experiment [1] has as its system CT26 syngeneic colon adenocarcinoma. The experiment is described as follows: Efficacy study in the CT-26 syngeneic (Balb/c male) mouse tumor model. The format is in vivo. To be noted: 14 days, CT26 tumor bearing mice. As for the experimental part: The objective of this study was to evaluate anti-tumor activity of Compound 19 in a CT26 syngeneic colon adenocarcinoma model.
CT26 cell line was procured from ATCC, maintained and stored at ADTL-Bangalore cell line repository. One vial of CT26 cell line was thawed and revived in T-150 cm^2 flask with RPMI medium supplemented with 10% FBS (Gibco), 10 mM 4-(2-hydroxyethyl)-1-piperazineethanesulfonic acid (HEPES), 1 mM sodium pyruvate, 4.5 g/L Glucose, 1% penicillin streptomycin (Sigma) and 1.5 g/L sodium bicarbonate. The flask with CT26 cells at cell density 0.25 million/ml was incubated at 37±1° C. incubator supplied with 5% carbon dioxide. Cell expansion was carried out in T-150 cm^2 flasks and cell density was maintained between 0.25 […], with cell splitting every alternate day. […] Supernatant was discarded and cell pellets were suspended in media and counted using hemocytometer. […]
When the mean tumor volumes reached approximately 30±5 mm^3, the animals were randomized based on tumor volumes into five groups (G1 to G5) of ten animals (N=10) each as mentioned below. The treatment was continued for a period of 14 days after which the overall efficacy and tolerability were evaluated based on tumor volume and body weight changes observed during the treatment period. […]

T1 sequence (Q9EP73 19-238 limits assumed): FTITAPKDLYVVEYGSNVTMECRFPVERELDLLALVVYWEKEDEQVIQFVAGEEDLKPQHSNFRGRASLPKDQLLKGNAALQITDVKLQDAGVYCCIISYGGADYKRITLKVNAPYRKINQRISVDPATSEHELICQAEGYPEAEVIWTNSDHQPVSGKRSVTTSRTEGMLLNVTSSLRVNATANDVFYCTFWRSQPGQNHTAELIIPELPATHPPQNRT

`N[C@@H](CCC(=O)O)c1noc([C@H](Cc2ccc(O)cc2)NC(=O)N[C@@H](Cc2ccccc2)C(=O)O)n1` [Compound 4]: the activation at 0.1 µM on PD-L1 amounted to 22%.
On the same count and under the same terms, as for `CC(O)[C@H](NC(=O)N[C@@H](Cc1cnc[nH]1)c1nc([C@@H](N)Cc2ccc(O)cc2)no1)C(=O)O` (stereo partly shown) [Compound 7], the figure is 39%.
For the compound `N[C@@H](Cc1ccc(O)cc1)c1noc([C@@H]2CCCN2C(=O)N[C@@H](CC(=O)O)C(=O)O)n1` [Compound 1, ((S)-2-(3-((S)-1-amino-2-(4-hydroxyphenyl)ethyl)-1,2,4-oxadiazol-5-yl)pyrrolidine-1-carbonyl)-L-aspartic acid], at PD-L1, the activation at 0.1 µM is 17%. Moreover, in the experiment with mPVR, the “Percent rescue of CD8+ T-cell proliferation at 100 nM mPVR based assay” value (“Percent rescue … at 100 nM mPVR based assay” below) turned out to be 98%.
As to `CC(O)[C@H](N)c1noc([C@@H](N)Cc2ccccc2)n1` (stereo partly shown) [Compound 16], the “Percent rescue of CD8+ T-cell proliferation mPVR based assay” value in the experiment with mPVR is 72 (@ 1000 nM) %.
Take `CC(O)[C@H](NC(=O)NCc1nc([C@@H](N)CCC(=O)O)no1)C(=O)O` (stereo partly shown) [Compound 8]: the “Percent rescue … at 100 nM mPVR based assay” value with mPVR came out at 14.6%.
With `CC(C)[C@H](N)c1noc([C@@H](NC(=O)N[C@@H](CCC(N)=O)C(=O)O)C(C)O)n1` (stereo partly shown) [Compound 5], the activation at 0.1 µM on PD-L1 was found to be 27%. Also, the “Percent rescue of CD8+ T-cell proliferation mPVR based assay” value in the experiment with mPVR is “(17 @ 1000 nM) %”.
Consider `CCC(C)[C@H](NC(=O)N[C@@H](CS)c1nc([C@@H](N)Cc2ccccc2)no1)C(=O)O` (stereo partly shown) [Compound 6], for which the activation at 0.1 µM on PD-L1 came to 15%.
Consider `CC(O)[C@H](NC(=O)NCc1nc([C@@H](N)CC(=O)O)no1)C(=O)O` (stereo partly shown) [Compound 2], for which the activation at 0.1 µM at PD-L1 came out at 84%. Also, the “Percent rescue … at 100 nM mPVR based assay” value with mPVR is 14%.
`CC(O)[C@H](NC(=O)N[C@@H](Cc1ccc(O)cc1)C(=O)O)c1nc([C@@H](N)Cc2c[nH]cn2)no1` (stereo partly shown) [Compound 3]: the activation at 0.1 µM at PD-L1 was 11%. Also, the “Percent rescue … at 100 nM mPVR based assay” value in the experiment with mPVR stood at 59%.
Regarding `CC(O)[C@H](N)c1noc([C@H](Cc2ccccc2)NC(=O)N2CCC[C@H]2C(=O)O)n1` (stereo partly shown) [Compound 20], the activation at 0.1 µM on PD-L1 is 35%.
`CC(O)[C@H](N)c1noc([C@H](Cc2ccc(O)cc2)NC(=O)N2CCC[C@H]2C(=O)O)n1` (stereo partly shown) [Compound 19]: the activation at 0.1 µM at PD-L1 came to 99%. The “Percent rescue … at 100 nM mPVR based assay” value with mPVR came out at 72%. Moreover, the tumor growth inhibition in experiment [1] (10 mg/kg qd oral) is reported as 42%; in experiment [1] (30 mg/kg qd oral, statistically significant compared to vehicle), 53%.
In the case of `CC(O)[C@H](N)c1noc([C@@H](NC(=O)N[C@@H](Cc2ccccc2)C(=O)O)C(C)O)n1` (stereo partly shown) [Compound 9], in the experiment on mPVR, the “Percent rescue … at 100 nM mPVR based assay” value was determined as 56.9%.
